Test: Displacement of [3H]epibatine from nAChR in rat cortical membrane
Format: cell membranes

Row | SMILES | Ki
1 | Ic1cncc([C@H]2C[C@H]3CC[C@H]2N3)c1 (stereo in doubt; (+)-4) | 0.048 nM
2 | CN1[C@@H]2CC[C@@H]1[C@@H](c1cncc(I)c1)C2 (stereo in doubt; (+)-5) | 0.055 nM
3 | Ic1cncc([C@H]2C[C@H]3CC[C@H]2N3)c1 (stereo in doubt; (-)-4) | 0.045 nM
4 | CN1[C@@H]2CC[C@@H]1[C@@H](c1cncc(I)c1)C2 (stereo in doubt; (-)-5) | 1.68 nM
5 | Clc1ccc(C2CC3CCC2N3)cn1 (stereo not given) [EPIBATIDINE] | 0.046 nM
